Laboratory results reported in paper PMC6857076 (Pharmacology Research & Perspectives, 2019).
Like-named read-outs stand apart in the source and are kept apart here.

Legend:
[1] = unbound, Cav × fu
CRP = details: RA, cited from earlier work
[2] = pooled RA clinical studies, cited from earlier work
platelet counts = details: integrated analysis of phase 1b, 2, 3 and LTE RA studies, baricitinib 4 mg QD; cited from earlier work
[3] = integrated analysis of phase 1b, 2, 3 and LTE RA studies, baricitinib 4 mg QD; cited from earlier work
in vitro = details: both, human, pooled human plasma
[4] = human; baricitinib 4 mg QD; cited from earlier work
NK cell counts = details: RA, baricitinib 4 mg QD, cited from earlier work
[5] = target: recombinant human kinase domain of TYK2 (Homo sapiens, UniProt P29597); assay: Enzymatic microfluidic kinase assay, TYK2
Chain of recombinant human kinase domain of TYK2 (P29597 897-1176 limits assumed): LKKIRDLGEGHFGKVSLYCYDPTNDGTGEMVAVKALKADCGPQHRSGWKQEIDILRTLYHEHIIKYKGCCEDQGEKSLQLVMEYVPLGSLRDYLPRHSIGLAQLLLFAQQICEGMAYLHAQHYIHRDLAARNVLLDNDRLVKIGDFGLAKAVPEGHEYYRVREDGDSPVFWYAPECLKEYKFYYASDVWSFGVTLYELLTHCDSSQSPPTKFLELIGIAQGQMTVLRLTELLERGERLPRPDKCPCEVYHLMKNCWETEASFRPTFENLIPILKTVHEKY

Row | SMILES | Cav,u ([1]; baricitinib 4 mg QD) [nM] | reduction of CRP levels from baseline to week 12 (CRP; baricitinib 4 mg QD) | herpes zoster incidence rate ([2]; baricitinib 2 mg QD) | herpes zoster incidence rate ([2]; baricitinib 4 mg QD) | platelet counts vs baseline (platelet counts) | hemoglobin levels vs baseline [3] | fraction unbound at 6 h, 1 μmol/L (in vitro) | Cav [4] [nM] | change from baseline in NK cell counts (NK cell counts; week 12) [cells/mm^3] | change from baseline in NK cell counts (NK cell counts; week 24) [cells/mm^3] | IC50 [5] [nM] | Cav,u ([1]; tofacitinib 5 mg BID) [nM] | reduction of CRP levels from baseline to week 12 (CRP; tofacitinib 5 mg BID) [mg/L]
1 | CCS(=O)(=O)N1CC(CC#N)(n2cc(-c3ncnc4[nH]ccc34)cn2)C1 [Baricitinib] | 16.0 | approximately −10 mg/L | 2.7 events per 100 patient-years | 4.3 events per 100 patient-years | initial increase in platelet counts, which then returned toward baseline | decreased from baseline to week 20, then returned to baseline or higher | 0.59 | 27 | −57.0 | −53.4 | 14 | – | –
2 | C[C@@H]1CCN(C(=O)CC#N)C[C@@H]1N(C)c1ncnc2[nH]ccc12 [Tofacitinib] | – | – | – | – | – | – | – | – | – | – | – | 41.0 | -10.1
